This note sets out measurements from patent US9079866B2, “Flap modulators” (JANSSEN PHARMACEUTICA NV, priority 2013, dated 2015).

What is called Ki is the equilibrium dissociation constant of an inhibitor or competing ligand from its target. What is called IC50 is the concentration that inhibits the measured activity by half.

The target in one test is human FLAP (Homo sapiens (Human), UniProt P20292). Nature of the test: FLAP binding assay (HTRF format). The method, boiled down:
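Samples were run in duplicate on each of two assay plates, the results were averaged, and the signal was expressed as an HTRF ratio.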
For orientation: Time-resolved FRET reads energy transfer from a long-lived donor to a nearby acceptor.

For test [1], the system named is leukotriene pathway in human whole blood (LTB4 levels). Nature of the test: Human whole blood assay (A23187-stimulated LTB4). The class given is cell-based. To be noted: Homo sapiens, read-out: LTB4 IC50 1:1. The procedure, abridged: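 Blood (heparin) diluted 1:1 RPMI; compound pre-incubation 15 min, 37° Celsius; A23187 7 μg/mL, 30 min, 37° Celsius; plasma LTB4 by commercial kit. IC50 via 4-parameter equation.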

The mark [2] stands for this setting: human whole blood diluted 1:1, A23187-stimulated.
Setting [3] is: human FLAP wild type, HTRF format, average of two plates, duplicates.
Where [4] appears, read: human whole blood diluted 1:1 in RPMI, A23187-stimulated LTB4.

Structures can show the parent of a compound that is named as a salt. Where two headings read alike, the source gives them in different places.

Chain of human FLAP (P20292 whole entry): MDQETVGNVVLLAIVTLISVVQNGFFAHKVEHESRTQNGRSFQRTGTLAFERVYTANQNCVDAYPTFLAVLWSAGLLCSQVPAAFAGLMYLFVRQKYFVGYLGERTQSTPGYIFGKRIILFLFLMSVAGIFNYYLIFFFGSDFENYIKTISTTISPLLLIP

`Nc1cnc(-c2ccc(-c3ccccc3-c3cnccn3)cc2F)cn1` [Example 838, 5-(3-Fluoro-2′-(pyrazin-2-yl)-[1,1′-biphenyl]-4-yl)pyrazin-2-amine]: the inhibition constant (Ki) at human FLAP (wild type FLAP, HTRF format) came to 28.6 nM. The 50% inhibitory concentration (IC50) in test [1] (setting [2]) was determined as 350 nM.
On to `CCNS(=O)(=O)c1cc(C(F)(F)F)ccc1-c1ccc(-c2cnc(N)cn2)c(F)c1` [Example 211, 4′-(5-Aminopyrazin-2-yl)-N-ethyl-3′-fluoro-4-(trifluoromethyl)biphenyl-2-sulfonamide], for which the inhibition constant (Ki) at human FLAP (setting [3]) was found to be 1 nM. For the same compound, the IC50 in test [1] (setting [4]) came out at 6 nM.
Compound `Nc1cnc(-c2ccc(-c3ccccc3S(=O)(=O)Nc3ccc(C(F)(F)F)nc3)cc2F)cn1` [Example 163, 4′-(5-Aminopyrazin-2-yl)-3′-fluoro-N-[6-(trifluoromethyl)pyridin-3-yl]biphenyl-2-sulfonamide] showed an inhibitory constant (Ki) on human FLAP (setting [3]) of 1 nM. Further, the IC50 in test [1] (setting [4]) is 595 nM.
On human FLAP (wild type FLAP, HTRF format), `CCN(c1ccccc1-c1ccc(-c2cnc(N)cn2)c(F)c1)S(C)(=O)=O` [Example 496, N-[4′-(5-Aminopyrazin-2-yl)-3′-fluorobiphenyl-2-yl]-N-ethylmethanesulfonamide] registered a Ki of 19 nM. The IC50 in test [1] (setting [2]) was found to be 165 nM.
As for `Nc1cnc(-c2ccc(-c3ccccc3S(=O)(=O)N3CCC(O)CC3)cc2F)cn1` [Example 67, 1-{[4′-(5-Aminopyrazin-2-yl)-3′-fluorobiphenyl-2-yl]sulfonyl}piperidin-4-ol], at human FLAP (setting [3]), the Ki is 3 nM. Moreover, in test [1] (setting [4]), the IC50 is 12 nM.
`CC(CO)Oc1ncccc1-c1ccc(-c2cnc(N)cn2)c(F)c1` (stereo in doubt) [Example 657, (2S)-2-({3-[4-(5-Aminopyrazin-2-yl)-3-fluorophenyl]pyridin-2-yl}oxy)propan-1-ol]: the Ki at human FLAP (wild type FLAP, HTRF format) is 73.5 nM. The IC50 in test [1] (setting [2]) came to 2340 nM.
The like results for `CC(C)(C)NS(=O)(=O)c1ccccc1-c1ccc(-c2cnc(N)nc2)nc1` [Example 693, 2-[6-(2-Aminopyrimidin-5-yl)pyridin-3-yl]-N-tert-butylbenzenesulfonamide] were, in that order, 49.5 nM and 103 nM.
For `Nc1ncc(-c2ccc(-c3cccnc3S(=O)(=O)C3CCOCC3)cc2F)cn1` [Example 831, 5-{2-Fluoro-4-[2-(tetrahydro-2H-pyran-4-ylsulfonyl)pyridin-3-yl]phenyl}pyrimidin-2-amine formic acid salt], on human FLAP (read-out: FLAP Binding wild type HTRF Ki), the inhibition constant Ki was 131 nM. Moreover, the IC50 in test [1] (setting [2]) worked out at 79.2 nM.
On to `CC(C)(C)Sc1ccccc1-c1ccc(-c2cnc(N)cn2)c(F)c1` [Example 190, 5-[2′-(tert-Butylsulfanyl)-3-fluorobiphenyl-4-yl]pyrazin-2-amine], for which the affinity at human FLAP (setting [3]), expressed as Ki, was 58 nM. In test [1] (setting [4]), the IC50 is 471 nM.
In turn, `C[C@H](NS(=O)(=O)c1ccccc1-c1ccc(-c2cnc(N)cn2)c(F)c1)C(O)c1ccccc1` (stereo in doubt) [Example 83, 4′-(5-Aminopyrazin-2-yl)-3′-fluoro-N-[(1S,2R)-2-hydroxy-1-methyl-2-phenylethyl]biphenyl-2-sulfonamide] had a Ki on human FLAP (setting [3]) of 1 nM. The half-inhibitory concentration (IC50) in test [1] (setting [4]) stood at 19 nM.
In turn, `Nc1cnc(-c2ccc(-c3ccccc3S(=O)(=O)N3CCC(CCO)CC3)cc2F)cn1` [Example 69, 2-(1-{[4′-(5-Aminopyrazin-2-yl)-3′-fluorobiphenyl-2-yl]sulfonyl}piperidin-4-yl)ethanol] gave a Ki at human FLAP (setting [3]) of 1 nM. Also, in test [1] (setting [4]), the half-inhibitory concentration (IC50) came to 8 nM.
With `CC(C)(C)NS(=O)(=O)c1ccccc1-c1ccc(-c2ccc3scnc3c2)c(F)c1` [Example 424, 4′-(1,3-Benzothiazol-5-yl)-N-tert-butyl-3′-fluorobiphenyl-2-sulfonamide], the Ki on human FLAP (wild type FLAP, HTRF format) is 10 nM. Further, in test [1] (setting [2]), the IC50 is over 10000 nM.
For `Nc1cnc(Sc2ccccc2-c2ccc(-c3cnc(N)cn3)c(F)c2)cn1` [Example 741, 5-{[4′-(5-Aminopyrazin-2-yl)-3′-fluorobiphenyl-2-yl]sulfanyl}pyrazin-2-amine], on human FLAP (wild type FLAP, HTRF format), the inhibition constant (Ki) came to 4.6 nM. In addition, in test [1] (setting [2]), the IC50 amounted to 26.3 nM.
As to `Nc1ncc(-c2ccc(-c3ccc(C(F)(F)F)cc3S(=O)(=O)NCCO)cn2)cn1` [Example 690, 2-[6-(2-Aminopyrimidin-5-yl)pyridin-3-yl]-N-(2-hydroxyethyl)-5-(trifluoromethyl)benzenesulfonamide], the affinity at human FLAP (wild type FLAP, HTRF format) corresponds to a Ki of 177 nM. In addition, the IC50 in test [1] (setting [2]) came out at 118 nM.
`N#CCOc1ccccc1-c1ccc(-c2cnc(N)nc2)c(F)c1` [Example 643, {[4′-(2-Aminopyrimidin-5-yl)-3′-fluorobiphenyl-2-yl]oxy}acetonitrile] showed a Ki on human FLAP (wild type FLAP, HTRF format) of 322 nM. In test [1] (setting [2]), the IC50 stood at 4290 nM.
The compound `CC(C)[C@H](CO)NS(=O)(=O)c1ccccc1-c1ccc(-c2cnc(N)cn2)c(F)c1` [Example 109, (R)-4′-(5-Aminopyrazin-2-yl)-3′-fluoro-N-[1-(hydroxymethyl)-2-methylpropyl]biphenyl-2-sulfonamide] gave an inhibition constant (Ki) on human FLAP (setting [3]) of 1 nM. Also, the IC50 in test [1] (setting [4]) turned out to be 18 nM.
`Nc1cnc(-c2ccc(-c3ccccc3S(=O)(=O)N3CC[C@@H](CO)C3)cc2F)cn1` [Example 111, (R)-(1-((4′-(5-Aminopyrazin-2-yl)-3′-fluoro-[1,1′-biphenyl]-2-yl)sulfonyl)pyrrolidin-3-yl)methanol] showed a Ki at human FLAP (setting [3]) of 4 nM. The 50% inhibitory concentration (IC50) in test [1] (setting [4]) came out at 58 nM.
On human FLAP (setting [3]), `CC[C@H](C)[C@@H](CO)NS(=O)(=O)c1ccccc1-c1ccc(-c2cnc(N)cn2)c(F)c1` [Example 84, 4′-(5-Aminopyrazin-2-yl)-3′-fluoro-N-[(1S,2S)-1-(hydroxymethyl)-2-methylbutyl]biphenyl-2-sulfonamide] returned a Ki of 3 nM. Further, the IC50 in test [1] (setting [4]) is 97 nM.
For the compound `CS(=O)(=O)c1ccccc1-c1ccc(-c2cnc(N)cn2)c(F)c1F` [Example 461, 5-[2,3-Difluoro-2′-(methylsulfonyl)biphenyl-4-yl]pyrazin-2-amine], the Ki at human FLAP (wild type FLAP, HTRF format) is 41 nM. Besides, the concentration for half-maximal inhibition (IC50) in test [1] (setting [2]) turned out to be 209 nM.
The like results for `CC(C)(C)NS(=O)(=O)c1ccccc1-c1ccc(-c2cnc3c(c2)CCN3)c(F)c1` [Example 431, N-tert-Butyl-4′-(2,3-dihydro-1H-pyrrolo[2,3-b]pyridin-5-yl)-3′-fluorobiphenyl-2-sulfonamide] were, in that order, 1 nM and 9 nM.
Turning to `Nc1ncc(-c2ccc(-c3ccccc3N3CCCS3(=O)=O)cc2F)cn1` [Example 858, 5-[2′-(1,1-Dioxidoisothiazolidin-2-yl)-3-fluorobiphenyl-4-yl]pyrimidin-2-amine], the Ki at human FLAP (wild type FLAP, HTRF format) stood at 210 nM. Further, the IC50 in test [1] (setting [2]) came out at 370 nM.
For `COc1c(-c2ccccc2S(=O)(=O)NC(C)(C)C)ccc(-c2cnc(N)cn2)c1F` [Example 836, 4′-(5-Aminopyrazin-2-yl)-N-tert-butyl-3′-fluoro-2′-methoxybiphenyl-2-sulfonamide], in that order: 25.5 nM and 595 nM.
For `Cc1cc(C)nc(Oc2ccccc2-c2ccc(-c3cnc(N)cn3)c(F)c2)n1` [Example 608, 5-{2′-[(4,6-Dimethylpyrimidin-2-yl)oxy]-3-fluorobiphenyl-4-yl}pyrazin-2-amine], the Ki at human FLAP (wild type FLAP, HTRF format) amounted to 28.7 nM. The IC50 in test [1] (setting [2]) was determined as 53.9 nM.
The like results for `C[C@@H](NC(=O)c1cc(C(F)(F)F)ccc1-c1ccc(-c2cnc(N)nc2)c(F)c1)C(F)(F)F` [Example 789, 2-[4-(2-Aminopyrimidin-5-yl)-3-fluoro-phenyl]-5-(trifluoromethyl)-N-[(1R)-2,2,2-trifluoro-1-methyl-ethyl]benzamide] were, in that order, 130 nM and 939 nM.
